Values after ≈ are worked out from the molar mass of the structure shown. Like-named read-outs stand apart in the source and are kept apart here.
Key:
Format in all cases: cell-based
[1] = tested on: Staphylococcus aureus ATCC #6538; assay: Minimum Inhibitory Concentration (MIC) Assay with Minimum Biocidal Concentration (MBC); details: solvent DMSO; for MBC / MIC: Staphylococcus aureus, ATCC6538, 24 h; for MBC: read-out: S. aureus MBC (ppm); for MIC: read-out: S. aureus MIC (ppm)
Procedure: The Minimum Inhibitory Concentration (MIC) Assay is a 96-well high throughput method that determines the minimum concentration of an active required to inhibit the growth of microorganisms. Organism preparation: Compounds were evaluated against the following microorganisms: Staphylococcus aureus ATCC #6538 (American Type Culture Collection, Manassas, Virginia, USA). To prepare bacteria solutions, bacteria were streaked on Tryptic Soy Agar (TSA) and incubated at 30-35° C. for 18-24 hrs. Confluent growth was transferred to saline (0.85% NaCl) and turbidometrically adjusted to a target concentration of 10^7-10^8 CFU/ml. This inoculum solution was further diluted 1:1000 in Tryptic Soy Broth (pH 7) for assay use. Assay: Two-fold serial dilutions were prepared in Dimethylsulfoxide (DMSO, Thermo Scientific Pierce DMSO, Sequencing Grade) or sterile water for each test sample. In a sterile 96-well plate, each dilution was further diluted in broth inoculum such that each well contained 5% dilution and 95% broth inoculum. Bacteria plates were incubated on an orbital shaker (Heidolph Titramax 1000 Vibrating Platform Shaker, 200-300 rpm) for 24±2 hrs at 35° C. After incubation, the optical density (OD) of each well was measured in a spectrophotometer (Victor Nivo Multimode Plate Reader) at 600 nm. […] To determine the Minimum Biocidal Concentration (MBC), 2 ul from each well was pipetted onto neutralizing agar (Modified Letheen Agar with Tween) and incubated for 24 hrs at 30-35° C. The MBC was determined as the most dilute concentration with no visible growth.

[2] = tested on: Staphylococcus aureus ATCC 6538; assay: Minimal Kill Concentration Assay (MKCA), S. aureus
Procedure: (§1) The MKC assay is a 96 well plate method to determine the minimum concentration of a test material or composition needed to kill Gram-negative and Gram-positive bacteria (Escherichia coli ATCC 8739 and Staphylococcus aureus ATCC 6538, respectively). The bacterial suspensions are prepared from 10× freezer stocks with 15% glycerol. The freezer stocks are centrifuged at 13,000×g (Eppendorf Centrifuge […] No. 541705483) for 1 minute. The supernatant is removed, and the cell pellet is resuspended in 1 mL saline (Sodium chloride solution 0.9%, Cytiva REF: Z1376), and then transferred to 9 mL saline. The target cfu/ml is 10^8, which is confirmed via serial diluting and plating on TSA plates (Tryptic Soy Agar-Sigma-Aldrich Cat #22091). Then 50 μL (25 μL if low on test materials) of bacteria is added to each well of a 96 well 0.5 mL V-Bottom plate (Greiner bio-one REF: 786201) to make a bacteria plate, one separate plate for each bacterium. The dilutions of the test compounds are prepared in a separate 96 well plate. The test compounds are tested at six dilutions in duplicates or with no replication diluted across the entire plate. The test compounds are prepared in Dimethyl Sulfoxide (Sigma Aldrich GR ACS Cat. No: MX1458-6) or sterile water at 2× the intended test concentration, and then serially diluted in the appropriate vehicle 1:2 across the plate using a multichannel. 50 μL (25 μL if low on test materials) from the test compound plate is added to each well in the bacteria plate all at once using an Integra VIAFLOW 96 channel pipette (Model: VIAFLO 96) and the Integra 300 μL Head (Part No. 6103). With addition of the 2× compounds bacteria plate, the compounds are diluted to a 1× test concentration. The addition of the test compounds to the bacteria wells starts the 20-minute contact time. The plates are mixed well using a Mix-Mate (Eppendorf SE). After 20 minutes, 1 μL from each well of the bacteria plate is transferred to premade Tryptic Soy Agar (TSA) plates (OmniTray Cell Culture Treated w/Lid Sterile, Cat. No: 165218) for spot plating using the Integra VIAFLOW 96 with the Integra 12.5 μL head (Part No. 6101). Then 4 μL from each well of the bacteria/compound plate is transferred to another 96 well plate containing 36 μL of neutralizer broth Modified Letheen Broth (BD Difco Letheen Broth, Modified REF 263010). The contact time is stopped at 20 minutes once the compound plate is neutralized. The plates are mixed well using a Mix-Mate and then 1 μL of the neutralizer+sample mix is transferred to a TSA OmniTray plate using the Integra VIAFLOW and Integra 12.5 μL head. The TSA spot plates are then incubated overnight for 20 hours at 37° C. in an Incubator. This process is done for both bacteria species. After overnight incubation, the plates are removed from the incubator and the results recorded by observing which dilutions had bacterial kill/growth. The last dilution that had kill for both replicates is recorded as the MKC. A positive control of Benzalkonium chloride (Sigma Aldrich Cat. No.: 12060-5G) and vehicle controls are always included in the test.

[3] = tested on: Escherichia coli ATCC 8739; assay: Minimal Kill Concentration Assay (MKCA), E. coli; details: for MBC: Escherichia coli, ATCC8739, 20 min, read-out: E. coli MKC (ppm)
Procedure: as §1

[4] = Table 1.4b, solvent DMSO, 20-minute contact time
[5] = Table 4, derivatized rhamnolipids, solvent DMSO, 20-minute contact time

Compound | MBC ([1]; Table 5) | MIC ([1]; Table 5) | S. aureus MBC (ppm) ([1]; Table 5) | S. aureus MIC (ppm) ([1]; Table 5) | S. aureus MKC (ppm) [2, 5] | E. coli MKC (ppm) [3, 5] | further results
CCCCCC(CC(=O)O)OC1O[C@@H](C)[C@H](O)[C@@H](O)[C@H]1O (some centres unmarked) [Rha1C14] |  |  |  |  |  |  | S. aureus MIC (ppm) ([1]; Table 1.5, >=50% inhibition, 24 hrs at 35° C.): 625 ppm; S. aureus MBC (ppm) ([1]; Table 1.5, no visible growth): >10000 ppm; S. aureus MKC (ppm) [2, 4]: 781 ppm; E. coli MKC (ppm) [3, 4]: 781 ppm
CCCCCCCC(CC(=O)O)O[C@@H]1O[C@@H](C)[C@H](O)[C@@H](O)[C@H]1O[C@@H]1O[C@H](C)C(O)[C@@H](O)[C@H]1O (stereo partly drawn) [calcium 3-(((2R,3R,4R,5R,6S)-4,5-dihydroxy-6-methyl-3-(((2S,3R,4R,6R)-3,4,5-trihydroxy-6-methyltetrahydro-2H-pyran-2-yl)oxy)tetrahydro-2H-pyran-2-yl)oxy)decanoate] | > 4000 µg/mL | > 4000 µg/mL |  |  |  |  | MBC ([2]; Staphylococcus aureus, ATCC6538, 20 min, read-out: S. aureus MKC (ppm)): > 9390 µg/mL; MBC [3]: > 9390 µg/mL
CCCCCCCC(CC(=O)OC)O[C@@H]1O[C@@H](C)[C@H](O)[C@@H](O)[C@H]1O (stereo partly drawn) [methyl 3-(((2R,3R,4R,5R,6S)-3,4,5-trihydroxy-6-methyltetrahydro-2H-pyran-2-yl)oxy)decanoate] | 1400 µg/mL (≈ 4 mM) | 1400 µg/mL (≈ 4 mM) |  |  |  |  | minimal kill concentration (20-minute contact) ([2]; Staphylococcus aureus, ATCC6538, 20 min, Table 4, derivatized rhamnolipids, solvent DMSO, 20-minute contact time, read-out: S. aureus MKC (ppm)): > 3490 µg/mL; MBC [3, 5]: > 3490 µg/mL
Methyl 3-(((2R,3R,4R,5R,6S)-4,5-dihydroxy-6-methyl-3-(((2R,3S,4S,5S,6S)-3,4,5-trihydroxy-6-methyltetrahydro-2H-pyran-2-yl)oxy)tetrahydro-2H-pyran-2-yl)oxy)decanoate |  |  | 1978.3 ppm | 1978.3 ppm | >4945.8 ppm | >4945.8 ppm | 
N-benzyl-3-(((2R,3R,4R,5R,6S)-4,5-dihydroxy-6-methyl-3-(((2R,3S,4S,5S,6S)-3,4,5-trihydroxy-6-methyltetrahydro-2H-pyran-2-yl)oxy)tetrahydro-2H-pyran-2-yl)oxy)decanamide |  |  | >2278.3 ppm | 2278.8 ppm | >5696.9 ppm | >5696.9 ppm | 

From patent US20260000596A1, “SEMI-SYNTHETIC RHAMNOLIPIDS” (The Procter & Gamble Company, priority 2024, published 2026)
